Test results: ChEMBL document CHEMBL1201862, “PubChem BioAssay data set” (2004)
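Exposure lasted 48 hours, with cells grown in 96-well plates and compounds tested at five concentrations. GI50 marks 50% less growth.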 Calls of active or inactive are those of the source. No stated cut-off is given here; in the data, active = GI50 up to about 1.1 µM and inactive = higher.

How the values were obtained:
Assay in all cases: NCI-60 cell line screen, 48 h
M14 = tested on: M14
Malme-3M = tested on: Malme-3M
MDA-MB-231 = tested on: MDA-MB-231
SNB-19 = tested on: SNB-19
HT-29 = tested on: HT-29
IGROV-1 = tested on: IGROV-1
A549 = tested on: A549
SF-295 = tested on: SF-295
SK-MEL-2 = tested on: SK-MEL-2
CAKI-1 = tested on: CAKI-1
SF-268 = tested on: SF-268
T47D = tested on: T47D
HCT-116 = tested on: HCT-116
NCI-H226 = tested on: NCI-H226
NCI-H522 = tested on: NCI-H522
OVCAR-5 = tested on: OVCAR-5
A498 = tested on: A498
HOP-62 = tested on: HOP-62
SK-MEL-5 = tested on: SK-MEL-5
SK-OV-3 = tested on: SK-OV-3
EKVX = tested on: EKVX
COLO 205 = tested on: COLO 205
RXF 393 = tested on: RXF 393
CCRF-CEM = tested on: CCRF-CEM
SNB-75 = tested on: SNB-75
MCF7 = tested on: MCF7
UACC-257 = tested on: UACC-257
PC-3 = tested on: PC-3
786-0 = tested on: 786-0
Hs-578T = tested on: Hs-578T
OVCAR-4 = tested on: OVCAR-4
KM12 = tested on: KM12
HCT-15 = tested on: HCT-15
HL-60 = tested on: HL-60
ACHN = tested on: ACHN
DU-145 = tested on: DU-145
SF-539 = tested on: SF-539
NCI-H460 = tested on: NCI-H460
MOLT-4 = tested on: MOLT-4
UACC-62 = tested on: UACC-62
SN12C = tested on: SN12C
OVCAR-8 = tested on: OVCAR-8
MDA-N = tested on: MDA-N
UO-31 = tested on: UO-31
TK-10 = tested on: TK-10
LOX IMVI = tested on: LOX IMVI
HOP-92 = tested on: HOP-92
NCI/ADR-RES = tested on: NCI/ADR-RES
NCI-H23 = tested on: NCI-H23
U-251 = tested on: U-251
SK-MEL-28 = tested on: SK-MEL-28
HCC 2998 = tested on: HCC 2998
SR = tested on: SR
SW-620 = tested on: SW-620
OVCAR-3 = tested on: OVCAR-3
K562 = tested on: K562
RPMI-8226 = tested on: RPMI-8226
MDA-MB-435 = tested on: MDA-MB-435
BT-549 = tested on: BT-549

Structure (SMILES): CCOC(=O)C(=[N+]=[N-])C(=O)C1(C(=O)OCC)CCN(C(=O)c2ccccc2)C1=O (stereo not drawn)
- GI50 (M14): > 100 µM (inactive)
- GI50 (Malme-3M): > 100 µM (inactive)
- GI50 (MDA-MB-231): > 100 µM (inactive)
- GI50 (SNB-19): > 100 µM (inactive)
- GI50 (HT-29): > 100 µM (inactive)
- GI50 (IGROV-1): > 100 µM (inactive)
- GI50 (A549): > 100 µM (inactive)
- GI50 (SF-295): > 100 µM (inactive)
- GI50 (SK-MEL-2): > 100 µM (inactive)
- GI50 (CAKI-1): > 100 µM (inactive)
- GI50 (SF-268): > 100 µM (inactive)
- GI50 (T47D): > 100 µM (inactive)
- GI50 (HCT-116): > 100 µM (inactive)
- GI50 (NCI-H226): > 100 µM (inactive)
- GI50 (NCI-H522): > 100 µM (inactive)
- GI50 (OVCAR-5): > 100 µM (inactive)
- GI50 (A498): > 100 µM (inactive)
- GI50 (HOP-62): > 100 µM (inactive)
- GI50 (SK-MEL-5): > 100 µM (inactive)
- GI50 (SK-OV-3): > 100 µM (inactive)
- GI50 (EKVX): > 100 µM (inactive)
- GI50 (COLO 205): > 100 µM (inactive)
- GI50 (RXF 393): > 100 µM (inactive)
- GI50 (CCRF-CEM): > 100 µM (inactive)
- GI50 (SNB-75): > 100 µM (inactive)
- GI50 (MCF7): > 100 µM (inactive)
- GI50 (UACC-257): > 100 µM (inactive)
- GI50 (PC-3): > 100 µM (inactive)
- GI50 (786-0): > 100 µM (inactive)
- GI50 (Hs-578T): > 100 µM (inactive)
- GI50 (OVCAR-4): > 100 µM (inactive)
- GI50 (KM12): > 100 µM (inactive)
- GI50 (HCT-15): > 100 µM
- GI50 (HL-60): > 100 µM (inactive)
- GI50 (ACHN): > 100 µM (inactive)
- GI50 (DU-145): > 100 µM (inactive)
- GI50 (SF-539): > 100 µM (inactive)
- GI50 (NCI-H460): > 100 µM (inactive)
- GI50 (MOLT-4): > 100 µM (inactive)
- GI50 (UACC-62): > 100 µM (inactive)
- GI50 (SN12C): > 100 µM (inactive)
- GI50 (OVCAR-8): > 100 µM (inactive)
- GI50 (MDA-N): > 100 µM (inactive)
- GI50 (UO-31): > 100 µM (inactive)
- GI50 (TK-10): > 100 µM (inactive)
- GI50 (LOX IMVI): > 100 µM (inactive)
- GI50 (HOP-92): > 100 µM (inactive)
- GI50 (NCI/ADR-RES): > 100 µM (inactive)
- GI50 (NCI-H23): > 100 µM (inactive)

Structure (SMILES): Cc1nc2nn[nH]n2c(=O)c1CCO
- GI50 (M14): > 100 µM (inactive)
- GI50 (Malme-3M): > 100 µM (inactive)
- GI50 (MDA-MB-231): > 100 µM (inactive)
- GI50 (SNB-19): > 100 µM (inactive)
- GI50 (HT-29): > 100 µM (inactive)
- GI50 (IGROV-1): > 100 µM (inactive)
- GI50 (A549): > 100 µM (inactive)
- GI50 (SF-295): > 100 µM (inactive)
- GI50 (U-251): > 100 µM (inactive)
- GI50 (SK-MEL-2): > 100 µM (inactive)
- GI50 (CAKI-1): > 100 µM (inactive)
- GI50 (SK-MEL-28): > 100 µM (inactive)
- GI50 (SF-268): > 100 µM (inactive)
- GI50 (T47D): > 100 µM (inactive)
- GI50 (HCC 2998): > 100 µM (inactive)
- GI50 (HCT-116): > 100 µM (inactive)
- GI50 (NCI-H226): > 100 µM (inactive)
- GI50 (NCI-H522): > 100 µM (inactive)
- GI50 (SR): > 100 µM (inactive)
- GI50 (OVCAR-5): > 100 µM (inactive)
- GI50 (A498): > 100 µM (inactive)
- GI50 (HOP-62): > 100 µM (inactive)
- GI50 (SK-MEL-5): > 100 µM (inactive)
- GI50 (SK-OV-3): > 100 µM (inactive)
- GI50 (SW-620): > 100 µM (inactive)
- GI50 (EKVX): > 100 µM (inactive)
- GI50 (COLO 205): > 100 µM (inactive)
- GI50 (RXF 393): > 100 µM (inactive)
- GI50 (OVCAR-3): > 100 µM (inactive)
- GI50 (K562): > 100 µM (inactive)
- GI50 (CCRF-CEM): > 100 µM (inactive)
- GI50 (SNB-75): 26.6 µM (inactive)
- GI50 (MCF7): > 100 µM (inactive)
- GI50 (UACC-257): > 100 µM (inactive)
- GI50 (PC-3): > 100 µM (inactive)
- GI50 (786-0): > 100 µM (inactive)
- GI50 (Hs-578T): > 100 µM (inactive)
- GI50 (OVCAR-4): > 100 µM (inactive)
- GI50 (KM12): > 100 µM (inactive)
- GI50 (HCT-15): > 100 µM
- GI50 (HL-60): > 100 µM (inactive)
- GI50 (ACHN): > 100 µM (inactive)
- GI50 (DU-145): > 100 µM (inactive)
- GI50 (SF-539): > 100 µM (inactive)
- GI50 (NCI-H460): > 100 µM (inactive)
- GI50 (MOLT-4): > 100 µM (inactive)
- GI50 (UACC-62): > 100 µM (inactive)
- GI50 (RPMI-8226): > 100 µM (inactive)
- GI50 (SN12C): > 100 µM (inactive)
- GI50 (MDA-MB-435): > 100 µM (inactive)
- GI50 (OVCAR-8): > 100 µM (inactive)
- GI50 (MDA-N): > 100 µM (inactive)
- GI50 (UO-31): > 100 µM (inactive)
- GI50 (TK-10): > 100 µM (inactive)
- GI50 (LOX IMVI): > 100 µM (inactive)
- GI50 (HOP-92): > 100 µM (inactive)
- GI50 (NCI/ADR-RES): > 100 µM (inactive)
- GI50 (NCI-H23): > 100 µM (inactive)

Structure (SMILES): COc1ccc(OC)c2c3c([nH]c12)C(=O)Nc1nc(N)nc(N)c1C3
- GI50 (M14): > 100 µM (inactive)
- GI50 (Malme-3M): 30.8 µM (inactive)
- GI50 (HT-29): 1.12 µM (inactive)
- GI50 (SK-MEL-2): > 100 µM (inactive)
- GI50 (SK-MEL-28): > 100 µM (inactive)
- GI50 (T47D): > 100 µM (inactive)
- GI50 (HCC 2998): > 100 µM (inactive)
- GI50 (NCI-H226): > 100 µM (inactive)
- GI50 (OVCAR-5): > 100 µM (inactive)
- GI50 (SK-OV-3): > 100 µM (inactive)
- GI50 (SW-620): 2.07 µM (inactive)
- GI50 (EKVX): > 100 µM (inactive)
- GI50 (RXF 393): > 100 µM (inactive)
- GI50 (OVCAR-3): 3.14 µM (inactive)
- GI50 (K562): 0.634 µM (active)
- GI50 (BT-549): > 100 µM (inactive)
- GI50 (UACC-257): > 100 µM (inactive)
- GI50 (786-0): > 100 µM (inactive)
- GI50 (OVCAR-4): > 100 µM (inactive)
- GI50 (KM12): 4.57 µM (inactive)
- GI50 (DU-145): > 100 µM (inactive)
- GI50 (MDA-MB-435): 0.273 µM (active)
- GI50 (OVCAR-8): 4.89 µM (inactive)
- GI50 (TK-10): > 100 µM (inactive)
- GI50 (LOX IMVI): > 100 µM (inactive)
- GI50 (HOP-92): > 100 µM (inactive)
